Data reported in patent publication US20230023070A1, “Therapy for the Treatment of Cancer” (Celegene Corporation, priority 2019, published 2023).
“Also recorded” adds a separate entry of the source.

Tests used:
MM1.S cells = experiment: Anti-proliferative activity by 3H-thymidine incorporation, combination with bortezomib; assay type: cell-based; conditions: 3 days, bortezomib 62.5 and 125.0 pM, pomalidomide 0.001-1.0 μM or Compound A-S 0.1-10.0 nM
Procedure: The anti-proliferative activity of pomalidomide (treatment of cells with 0.001-1.0 μM) combined with bortezomib (62.5 and 125.0 pM) or Compound A-S (treatment of cells with 0.1-10.0 nM) combined with bortezomib (62.5 and 125.0 pM) was measured by 3H-thymidine incorporation in MM1.S cells after 3 days of treatment in each condition. Combination indices (CI) were calculated using the Chou-Talalay Method for each combination. CI values below 1 indicated synergistic activity of combination.

KMS-12BM cells = experiment: Apoptosis by flow cytometry, Annexin-V and ToPro3 staining, after proteasome inhibitor pulse; assay type: cell-based; conditions: then 3 days treatment, AnnV+/ToPro3+; for apoptosis / cell killing in combination with bortezomib: 1 hour pulse with bortezomib; for apoptosis / cell killing in combination with carfilzomib: 1 hour pulse with carfilzomib
Procedure: Apoptosis was measured in KMS-12BM cells by flow cytometry using Annexin-V (AnnV+; x-axis) and ToPro3+ (y-axis) staining after either vehicle (DMSO), pomalidomide (POM) or Compound A-S treatment over 3 days following 1 hour pulse treatment with DMSO, Bortezomib (BORT) or Carfilzomib (CFZ) at indicated concentrations.

Nc1cccc2c1C(=O)N(C1CCC(=O)NC1=O)C2=O (stereo not drawn) [pomalidomide, reference compound]
anti-proliferative activity in combination with bortezomib (combination index, Chou-Talalay; CI below 1 = synergistic) (MM1.S cells): synergistic | apoptosis / cell killing in combination with bortezomib (KMS-12BM cells): induced cell killing | apoptosis / cell killing in combination with carfilzomib (KMS-12BM cells): induced cell killing

O=C1CC[C@H](N2Cc3c(OCc4ccc(CN5CCOCC5)cc4)cccc3C2=O)C(=O)N1 [Compound A-S, (S)-3-(4-((4-(morpholinomethyl)benzyl)oxy)-1-oxoisoindolin-2-yl)piperidine-2,6-dione]
anti-proliferative activity in combination with bortezomib (combination index, Chou-Talalay; CI below 1 = synergistic) (MM1.S cells): synergistic | apoptosis / cell killing in combination with bortezomib (KMS-12BM cells): induced cell killing; also recorded: apoptosis induced | apoptosis / cell killing in combination with carfilzomib (KMS-12BM cells): induced cell killing; also recorded: apoptosis induced
